For assay [1], the target named is T1, AT1 L112A mutant receptor (Rattus norvegicus, UniProt P25095, L112A).
T1 construct: expressed in transfected cells; host or cells: COS1
T1 sequence (P25095 1-359 L112A): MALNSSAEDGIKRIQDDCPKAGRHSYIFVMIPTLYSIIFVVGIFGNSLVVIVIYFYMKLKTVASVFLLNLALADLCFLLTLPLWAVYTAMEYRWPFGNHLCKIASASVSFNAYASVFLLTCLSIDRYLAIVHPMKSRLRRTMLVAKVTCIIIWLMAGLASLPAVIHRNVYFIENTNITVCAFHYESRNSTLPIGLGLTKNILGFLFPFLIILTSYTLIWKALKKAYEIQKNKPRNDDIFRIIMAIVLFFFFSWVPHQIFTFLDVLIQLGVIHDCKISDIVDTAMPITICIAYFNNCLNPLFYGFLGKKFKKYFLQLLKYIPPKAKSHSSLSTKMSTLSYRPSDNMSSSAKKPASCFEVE
In words: competition binding, L112A mutant. The conditions noted are these: for Kd ratio relative to WT (in parentheses): L112A / WT; for Kd: L112A, COS1 membranes, read-out: Binding affinity (Kd). On the procedure: (§1) The Kd and Bmax values of receptor binding were determined by ^125I-[Sar^1, Ile^8] […] Membranes expressing the WT or mutant AT1 receptors were incubated with 100 pM ^125I-[Sar^1, Ile^8] […] The binding reaction was terminated by filtering the incubation mixture through Whatman GF/C glass filters, and the residues were extensively washed further with binding buffer. The bound ligand fraction was determined from the counts per minute (cpm) remaining on the membrane. Binding kinetics values were determined as previously described.

In assay [2] the target is T2, AT1 V116A mutant receptor (Rattus norvegicus, UniProt P25095, V116A).
T2 construct: expressed in transfected cells; host or cells: COS1
T2 sequence (P25095 1-359 V116A): T1 sequence (P25095 1-359 L112A) with A112L, V116A
In words: competition binding, V116A mutant. The conditions noted are these: for Kd ratio relative to WT (in parentheses): V116A / WT; for Kd: V116A, COS1 membranes, read-out: Binding affinity (Kd). On the procedure: as §1

Assay [3] concerns the target T3, AT1 Y113F mutant receptor (Rattus norvegicus, UniProt P25095, Y113F).
T3 construct: expressed in transfected cells; host or cells: COS1
T3 sequence (P25095 1-359 Y113F): T1 sequence (P25095 1-359 L112A) with A112L, Y113F
Put plainly: competition binding, Y113F mutant. The conditions noted are these: for Kd ratio relative to WT (in parentheses): Y113F / WT; for Kd: Y113F, COS1 membranes, read-out: Binding affinity (Kd). On the procedure: as §1

The target of assay [4] is T4, AT1 C76A/V116C/C289A mutant receptor (Rattus norvegicus, UniProt P25095, C289A/C76A/V116C).
T4 construct: expressed in transfected cells; host or cells: COS1 cells (membranes)
T4 sequence (P25095 1-359 C76A/V116C/C289A): T1 sequence (P25095 1-359 L112A) with C76A, A112L, V116C, C289A
Put plainly: competition binding, C76A/V116C/C289A mutant. The conditions noted are these: for Kd ratio relative to WT (in parentheses): C76A/V116C/C289A / WT; for Kd: C76A/V116C/C289A, COS1 membranes, read-out: Binding affinity (Kd). On the procedure:
as §1

In assay [5] the target is T5, AT1 F117A mutant receptor (Rattus norvegicus, UniProt P25095, F117A).
T5 construct: expressed in transfected cells; host or cells: COS1
T5 sequence (P25095 1-359 F117A): T1 sequence (P25095 1-359 L112A) with A112L, F117A
In words: competition binding, F117A mutant. The conditions noted are these: for Kd ratio relative to WT (in parentheses): F117A / WT; for Kd: F117A, COS1 membranes, read-out: Binding affinity (Kd). On the procedure: as §1

For assay [6], the target named is T6, AT1 C76A/A106C/C289A mutant receptor (Rattus norvegicus, UniProt P25095, A106C/C289A/C76A).
T6 construct: expressed in transfected cells; host or cells: COS1
T6 sequence (P25095 1-359 C76A/A106C/C289A): T1 sequence (P25095 1-359 L112A) with C76A, A106C, A112L, C289A
In words: competition binding, C76A/A106C/C289A mutant. The conditions noted are these: for Kd ratio relative to WT (in parentheses): C76A/A106C/C289A / WT; for Kd: C76A/A106C/C289A, COS1 membranes, read-out: Binding affinity (Kd). On the procedure:
as §1

Consider 3 compounds from PMC3375280 (PLoS ONE, 2012).

Residue numbers refer to the chain shown, from its start.

As to `CCCc1nc(C(C)(C)O)c(C(=O)O)n1Cc1ccc(-c2ccccc2-c2nnn[nH]2)cc1` [Olmesartan, olmesartan, reference compound], the “Kd ratio relative to WT (in parentheses)” value in assay [1] is on record as 12 fold; in assay [1] (listed as olmesartan), over 10 fold; in assay [2], 3.8 fold; in assay [3] it was 23 fold; in assay [3] (listed as olmesartan) it was over 10 fold; in assay [4], 2.7 fold. Moreover, the results for the “Kd ratio relative to WT (in parentheses)” value in assay [5] and in assay [6] were 1.1 fold and 3.9 fold, respectively. In addition, the Kd in assay [1] came out at 0.027 ± 0.007 µM; in assay [2], 0.0088 ± 0.0012 µM; in assay [3], 0.052 ± 0.007 µM; in assay [4], 0.0062 ± 0.0017 µM; in assay [5], 0.0025 ± 0.0014 µM; in assay [6], 0.0089 ± 0.004 µM.
On to `CCCc1nc(C(C)(C)O)c(C(N)=O)n1Cc1ccc(-c2ccccc2-c2nnn[nH]2)cc1` [R239470], for which the “Kd ratio relative to WT (in parentheses)” value is listed as 54 fold in assay [1]; 3.2 fold in assay [2]; 21 fold in assay [3]; 3.1 fold in assay [4]; 1.9 fold in assay [5]; 5.1 fold in assay [6]. Also, the Kd in assay [1] stood at 0.043 ± 0.012 µM; in assay [2] it was 0.0026 ± 0.0007 µM; in assay [3], 0.017 ± 0.003 µM; in assay [4] it was 0.0025 ± 0.001 µM; in assay [5] it was 0.0015 ± 4e-05 µM; in assay [6], 0.0041 ± 0.001 µM.
As for `CCCc1nc(C(C)(C)O)c(C(N)=O)n1Cc1ccc(-c2cc(Cc3ccc(O)cc3)ccc2-c2nnn[nH]2)cc1` [R794847], the “Kd ratio relative to WT (in parentheses)” value in assay [1] is given as 0.6 fold; in assay [2], 45 fold; in assay [3], 8.1 fold; in assay [4], 0.8 fold; in assay [5], 1.1 fold; in assay [6] it was 4.0 fold. In addition, the Kd in assay [1] was determined as 0.031 ± 0.005 µM; in assay [2], 2.15 ± 0.802 µM; in assay [3], 0.388 ± 0.054 µM; in assay [4], 0.039 ± 0.003 µM; in assay [5], 0.054 ± 0.019 µM; in assay [6] it was 0.193 ± 0.073 µM.
